Measured values reported in ChEMBL document CHEMBL1201862, “PubChem BioAssay data set” (2004).
Activity calls are given as the source filed them.

Assays:
[1] = target: T1, RNA-binding protein pos-1 (Caenorhabditis elegans, UniProt G5EF15); experiment: disruptors of C. elegans POS-1 RNA interaction – biochemical, fluorescence polarization, dose response (AID 1964);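 also: purified POS-1 fused to maltose binding protein made in E. coli; potency of compounds blocking POS-1 binding to fluorescent RNA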
T1 sequence (G5EF15 whole entry): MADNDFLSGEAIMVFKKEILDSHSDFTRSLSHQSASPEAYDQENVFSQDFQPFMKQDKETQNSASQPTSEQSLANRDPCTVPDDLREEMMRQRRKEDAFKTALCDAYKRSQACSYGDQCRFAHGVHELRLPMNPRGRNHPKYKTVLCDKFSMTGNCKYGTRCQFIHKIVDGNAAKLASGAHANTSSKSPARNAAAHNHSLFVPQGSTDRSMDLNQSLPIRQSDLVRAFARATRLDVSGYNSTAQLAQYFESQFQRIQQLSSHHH

[2] = system: Streptococcus sp. 'group A'; experiment: Streptococcus pyogenes SK(-)GAS viability under kanamycin – luminescence, BacTiterGlo, confirmation, counter-screen for streptokinase expression inhibitor project, dose response (AID 1900); type: functional, organism-based
[3] = target: T2, Zinc finger protein mex-5 (Caenorhabditis elegans, UniProt Q9XUB2); experiment: potency of MEX-5 RNA-binding blockers – biochemical, C. elegans, fluorescence polarization, dose response (AID 1960)
T2 sequence (Q9XUB2 whole entry): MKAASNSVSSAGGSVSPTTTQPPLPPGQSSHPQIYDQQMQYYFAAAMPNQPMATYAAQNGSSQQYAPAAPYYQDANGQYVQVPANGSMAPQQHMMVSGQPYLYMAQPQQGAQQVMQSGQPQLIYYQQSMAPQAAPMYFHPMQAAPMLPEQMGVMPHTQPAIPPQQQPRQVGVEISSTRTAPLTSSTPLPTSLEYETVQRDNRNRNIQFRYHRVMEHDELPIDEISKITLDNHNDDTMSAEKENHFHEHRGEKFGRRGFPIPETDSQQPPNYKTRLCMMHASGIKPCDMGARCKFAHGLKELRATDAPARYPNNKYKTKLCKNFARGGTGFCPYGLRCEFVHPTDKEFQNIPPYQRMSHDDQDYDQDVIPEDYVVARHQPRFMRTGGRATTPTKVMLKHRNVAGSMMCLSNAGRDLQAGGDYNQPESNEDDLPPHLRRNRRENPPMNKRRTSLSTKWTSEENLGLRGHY

[4] = Trypanosoma cruzi growth suppression in host cells – NIH3T3 host cells, beta-gal luminescence, confirmation (AID 2044); type: functional, cell-based;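 also: intracellular parasites grown in NIH/3T3 mouse fibroblasts as host cells; luminescent beta-galactosidase reporter signal from transgenic T. cruzi replicating inside host cells; inhibitors lower the luminescence signal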
[5] = viability of PTEN-deleted HCT116 cells – cell-based, HCT116 PTEN knockout, dose response (AID 1047); type: functional;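 also: HCT116 colon tumor cells with PTEN knocked out; cells exposed to compound for 60 hours before readout; potency for loss of cell viability measured by luminescence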
Prothrombin = Prothrombin (Homo sapiens, UniProt P00734); experiment: Thrombin 1536 HTS Dose Response Confirmation. [Related pubchem assays: 1046 (Thrombin 1536 HTS; hits were confirmed in this assay)]; type: functional
[6] = NIH3T3 cell viability loss – ATP luminescence, mouse fibroblasts, counter-screen, dose response (AID 2010); type: functional, cell-based;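 also: cells exposed to compound for about 90 hours before reading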
[7] = viability of HCT116 lacking mutant beta-catenin – cell-based, human colon tumor, dose response (AID 1045); type: functional;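 also: HCT116 colon tumor cells with beta catenin knocked out; cells exposed to compound for 60 hours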
Streptococcus = experiment: GAS UMAA2166 growth inhibition – luminescence, BacTiterGlo, counter-screen for streptokinase expression inhibitor project, dose response (AID 1915); type: functional, organism-based;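 also: potency for reduction of bacterial viability or growth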
[8] = viability of uninfected HEp-2 cells – cell-based, HTS, cytotoxicity control for RSV inhibitor project, dose response (AID 2410); type: functional; conditions: human respiratory syncytial virus
[9] = potency of ADAM10 substrate cleavage blockers – biochemical, QFRET, dose response (AID 743254);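 also: ADAM10 enzyme with the DM2 quenched FRET peptide as substrate; EDANS fluorescence gain as the protease cuts the substrate; inhibitor potency against ADAM10 proteolytic activity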
[10] = target: Disintegrin and metalloproteinase domain-containing protein 17 (Homo sapiens, UniProt P78536); experiment: inhibition of ADAM17 substrate cleavage – biochemical, quenched FRET substrate, counter-screen for ADAM10 exosite inhibitor project, dose response (AID 743253)
[11] = target: Eukaryotic translation initiation factor 4E (Mus musculus, UniProt P63073); experiment: blockers of eIF4G binding by eIF4E – biochemical, TR-FRET, dose response (AID 855); type: functional;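 also: potency for disrupting eIF4E binding to eIF4GI seen as loss of FRET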
Cytochrome P450 2C9 = Cytochrome P450 2C9 (Homo sapiens, UniProt P11712)
[12] = target: T3, Tyrosine-protein phosphatase non-receptor type 7 (Homo sapiens, UniProt P35236); experiment: HePTP tyrosine phosphatase activity blockers – biochemical, absorbance, leukemia target, primary screen (AID 521); type: functional
T3 sequence (P35236 whole entry): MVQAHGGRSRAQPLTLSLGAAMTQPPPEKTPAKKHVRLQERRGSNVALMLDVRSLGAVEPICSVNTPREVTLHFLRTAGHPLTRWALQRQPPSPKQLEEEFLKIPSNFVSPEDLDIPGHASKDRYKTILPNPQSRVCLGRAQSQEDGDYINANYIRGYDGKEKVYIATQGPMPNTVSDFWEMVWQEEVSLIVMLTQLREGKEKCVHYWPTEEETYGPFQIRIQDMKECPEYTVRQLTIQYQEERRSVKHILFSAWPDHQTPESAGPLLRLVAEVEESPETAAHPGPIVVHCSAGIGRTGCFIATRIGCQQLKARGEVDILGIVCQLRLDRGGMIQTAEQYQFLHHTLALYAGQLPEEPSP

cells = type: functional
Aminopeptidase N = target: T4, Aminopeptidase N (Plasmodium falciparum FcB1/Columbia, UniProt O96935); experiment: malaria alanyl aminopeptidase activity blockers – biochemical, fluorogenic H-Leu-NHMec substrate, 1536-well (AID 1445); parameters: species or system Plasmodium falciparum 3D7, 3D7
T4 sequence (O96935 whole entry): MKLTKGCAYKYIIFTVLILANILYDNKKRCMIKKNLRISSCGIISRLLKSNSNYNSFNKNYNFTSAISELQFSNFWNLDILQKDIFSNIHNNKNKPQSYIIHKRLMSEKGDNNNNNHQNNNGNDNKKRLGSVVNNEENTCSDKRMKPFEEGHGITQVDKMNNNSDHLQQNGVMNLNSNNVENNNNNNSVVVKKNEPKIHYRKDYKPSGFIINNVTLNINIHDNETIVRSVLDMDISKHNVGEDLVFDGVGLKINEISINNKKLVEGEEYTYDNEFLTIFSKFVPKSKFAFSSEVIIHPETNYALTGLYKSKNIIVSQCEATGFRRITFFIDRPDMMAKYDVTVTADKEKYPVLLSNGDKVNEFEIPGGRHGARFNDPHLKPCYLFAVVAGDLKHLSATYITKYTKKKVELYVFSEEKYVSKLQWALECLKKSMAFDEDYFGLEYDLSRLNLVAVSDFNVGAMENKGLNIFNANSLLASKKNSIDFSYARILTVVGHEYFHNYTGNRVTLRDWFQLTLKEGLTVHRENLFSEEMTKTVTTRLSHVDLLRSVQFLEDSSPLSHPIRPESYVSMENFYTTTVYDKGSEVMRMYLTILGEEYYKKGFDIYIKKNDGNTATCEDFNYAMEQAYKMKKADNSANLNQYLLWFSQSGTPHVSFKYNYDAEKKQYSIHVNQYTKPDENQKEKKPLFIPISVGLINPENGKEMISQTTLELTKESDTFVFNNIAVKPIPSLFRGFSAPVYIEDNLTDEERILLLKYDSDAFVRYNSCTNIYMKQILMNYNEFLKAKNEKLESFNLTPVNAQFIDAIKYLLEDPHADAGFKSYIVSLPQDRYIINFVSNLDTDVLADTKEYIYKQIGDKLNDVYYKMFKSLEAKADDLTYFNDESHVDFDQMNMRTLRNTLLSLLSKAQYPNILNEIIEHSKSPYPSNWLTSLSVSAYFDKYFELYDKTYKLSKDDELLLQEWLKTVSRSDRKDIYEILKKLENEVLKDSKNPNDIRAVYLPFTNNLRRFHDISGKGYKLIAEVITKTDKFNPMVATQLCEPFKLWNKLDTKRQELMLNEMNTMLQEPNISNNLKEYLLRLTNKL

Large T antigen = Large T antigen (Simian virus 40, UniProt P03070); type: functional, Betapolyomavirus macacae;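 also: Confirmatory-stage PubChem screen for compounds that inhibit SV40 T antigen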
fMet-Leu-Phe receptor = target: T5, fMet-Leu-Phe receptor (Homo sapiens, UniProt P21462); experiment: formyl peptide receptor binders – dose response (AID 519); type: functional
T5 sequence (P21462 whole entry): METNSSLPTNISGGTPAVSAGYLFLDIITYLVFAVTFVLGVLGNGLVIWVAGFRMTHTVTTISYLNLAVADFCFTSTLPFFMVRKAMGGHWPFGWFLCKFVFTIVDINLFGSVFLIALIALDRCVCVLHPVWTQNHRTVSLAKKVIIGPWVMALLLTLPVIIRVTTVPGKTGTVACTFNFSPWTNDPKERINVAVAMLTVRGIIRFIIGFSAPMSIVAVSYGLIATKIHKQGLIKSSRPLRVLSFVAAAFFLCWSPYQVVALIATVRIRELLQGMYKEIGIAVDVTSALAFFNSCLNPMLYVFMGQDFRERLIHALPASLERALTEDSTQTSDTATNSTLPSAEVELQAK

[13] = P. falciparum Dd2 growth inhibitors, dose response, SYBR Green, cherry-picked samples (AID 1159567); type: functional, cell-based
Cytochrome P450 2D6 = Cytochrome P450 2D6 (Homo sapiens, UniProt P10635);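 also: CYP2D6 member of a cytochrome P450 panel assay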
Cytochrome P450 2D6, sequence (P10635 whole entry): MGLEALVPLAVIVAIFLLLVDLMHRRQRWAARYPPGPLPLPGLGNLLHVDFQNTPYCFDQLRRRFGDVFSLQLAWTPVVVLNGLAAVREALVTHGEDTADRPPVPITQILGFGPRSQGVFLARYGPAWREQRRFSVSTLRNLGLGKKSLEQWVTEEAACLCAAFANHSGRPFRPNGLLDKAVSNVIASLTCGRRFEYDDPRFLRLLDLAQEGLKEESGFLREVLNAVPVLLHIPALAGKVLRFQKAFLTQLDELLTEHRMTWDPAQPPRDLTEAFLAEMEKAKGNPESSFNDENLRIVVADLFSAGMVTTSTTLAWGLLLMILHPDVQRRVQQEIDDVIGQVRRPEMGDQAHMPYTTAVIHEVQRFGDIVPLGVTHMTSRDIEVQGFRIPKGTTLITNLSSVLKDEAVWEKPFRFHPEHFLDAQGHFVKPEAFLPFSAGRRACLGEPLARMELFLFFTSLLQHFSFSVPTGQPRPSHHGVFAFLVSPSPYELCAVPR

Disintegrin and metalloproteinase domain-containing protein 17, sequence (P78536 whole entry, the tested form may be a part): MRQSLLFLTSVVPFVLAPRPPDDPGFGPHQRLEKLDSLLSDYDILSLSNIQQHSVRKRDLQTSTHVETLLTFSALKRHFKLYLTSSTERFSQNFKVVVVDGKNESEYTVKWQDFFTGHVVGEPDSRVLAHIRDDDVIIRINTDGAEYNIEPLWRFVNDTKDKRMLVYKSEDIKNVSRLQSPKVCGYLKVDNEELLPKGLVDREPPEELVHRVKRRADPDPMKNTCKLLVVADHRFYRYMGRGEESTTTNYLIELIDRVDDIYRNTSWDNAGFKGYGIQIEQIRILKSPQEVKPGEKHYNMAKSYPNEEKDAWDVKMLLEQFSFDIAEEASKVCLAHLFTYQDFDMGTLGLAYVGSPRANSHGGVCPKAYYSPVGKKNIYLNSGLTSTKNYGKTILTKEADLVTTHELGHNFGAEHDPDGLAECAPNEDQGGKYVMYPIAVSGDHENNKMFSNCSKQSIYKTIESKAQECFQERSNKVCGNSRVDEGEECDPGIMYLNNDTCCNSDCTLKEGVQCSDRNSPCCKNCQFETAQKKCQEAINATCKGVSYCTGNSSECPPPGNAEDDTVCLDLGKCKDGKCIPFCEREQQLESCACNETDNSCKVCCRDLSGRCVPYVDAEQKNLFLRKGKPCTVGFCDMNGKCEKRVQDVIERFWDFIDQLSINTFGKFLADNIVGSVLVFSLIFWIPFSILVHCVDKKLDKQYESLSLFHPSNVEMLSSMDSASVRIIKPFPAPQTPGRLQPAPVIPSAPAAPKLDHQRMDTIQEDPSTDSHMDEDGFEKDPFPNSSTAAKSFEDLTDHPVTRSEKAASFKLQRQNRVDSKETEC
Cytochrome P450 2C9, sequence (P11712 whole entry): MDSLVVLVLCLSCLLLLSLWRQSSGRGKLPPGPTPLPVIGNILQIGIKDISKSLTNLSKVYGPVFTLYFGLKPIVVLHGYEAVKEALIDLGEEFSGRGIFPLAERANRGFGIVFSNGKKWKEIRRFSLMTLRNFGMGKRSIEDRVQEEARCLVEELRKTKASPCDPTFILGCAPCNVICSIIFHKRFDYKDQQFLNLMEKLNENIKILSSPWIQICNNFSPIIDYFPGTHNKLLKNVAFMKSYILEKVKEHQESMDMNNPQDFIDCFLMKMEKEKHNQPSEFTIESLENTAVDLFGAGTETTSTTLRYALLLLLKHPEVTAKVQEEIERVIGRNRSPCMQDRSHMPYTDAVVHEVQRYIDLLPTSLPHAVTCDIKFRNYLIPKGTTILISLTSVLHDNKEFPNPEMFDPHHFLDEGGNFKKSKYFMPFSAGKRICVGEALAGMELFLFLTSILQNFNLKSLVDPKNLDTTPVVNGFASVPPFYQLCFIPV
Eukaryotic translation initiation factor 4E, sequence (P63073 whole entry): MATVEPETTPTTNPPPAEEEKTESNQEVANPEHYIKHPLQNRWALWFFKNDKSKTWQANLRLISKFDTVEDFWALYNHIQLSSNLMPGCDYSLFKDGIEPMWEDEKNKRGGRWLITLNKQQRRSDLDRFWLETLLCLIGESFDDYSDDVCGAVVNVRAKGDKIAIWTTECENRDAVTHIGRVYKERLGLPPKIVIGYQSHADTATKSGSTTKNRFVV
Large T antigen, sequence (P03070 whole entry): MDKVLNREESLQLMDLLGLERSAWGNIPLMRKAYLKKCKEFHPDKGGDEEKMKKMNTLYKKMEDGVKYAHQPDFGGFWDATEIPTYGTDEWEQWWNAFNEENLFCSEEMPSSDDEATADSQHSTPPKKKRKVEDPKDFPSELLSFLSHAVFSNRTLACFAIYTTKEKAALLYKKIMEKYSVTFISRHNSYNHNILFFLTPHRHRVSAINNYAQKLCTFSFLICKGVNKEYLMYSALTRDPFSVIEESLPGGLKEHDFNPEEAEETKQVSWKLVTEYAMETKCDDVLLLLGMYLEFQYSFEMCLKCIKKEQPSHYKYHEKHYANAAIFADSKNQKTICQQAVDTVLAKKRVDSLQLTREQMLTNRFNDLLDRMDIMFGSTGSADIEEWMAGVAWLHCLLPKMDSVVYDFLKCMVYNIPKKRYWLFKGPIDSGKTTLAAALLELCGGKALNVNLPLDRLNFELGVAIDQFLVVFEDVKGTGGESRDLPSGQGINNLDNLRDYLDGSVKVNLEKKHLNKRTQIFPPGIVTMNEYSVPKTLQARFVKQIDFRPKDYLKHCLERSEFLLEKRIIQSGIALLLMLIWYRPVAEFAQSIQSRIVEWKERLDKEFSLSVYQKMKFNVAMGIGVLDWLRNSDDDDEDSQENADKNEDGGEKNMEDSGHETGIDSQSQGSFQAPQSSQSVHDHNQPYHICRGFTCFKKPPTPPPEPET

Compound: COc1ccc(-n2nc(C(=O)c3cccs3)cc(-c3nc4ccccc4[nH]3)c2=N)cc1
- EC50 [1]: 53.8 µM (active)
- EC50 [2]: 3.26 µM (active)
- EC50 [3]: 66.3 µM (active)
- EC50 [4]: 0.531 µM (active)
- EC50 [5]: 14.6 µM (active)
- IC50 (Prothrombin): > 50 µM (not active)
- EC50 [6]: > 60 µM (not active)
- EC50 [7]: 11.2 µM (active)
- EC50 (Streptococcus): 10 µM (active)

Compound: CCOC(=O)C1=C(C)N(Cc2ccccc2)C(=O)NC1c1ccccc1OS(=O)(=O)c1ccccc1[N+](=O)[O-] (stereo unspecified)
- CC50 [8]: 5.56 µM (active)
- IC50 [9]: > 69.5 µM (inactive)
- IC50 [10]: > 69.5 µM (inactive)

Compound: COc1ccccc1CN(CC(=O)NCc1ccco1)C(=O)CNS(=O)(=O)c1ccc(C)cc1
- IC50 (Prothrombin): 7.63 µM (active)

Compound: COC(=O)n1c(=S)oc2cc(Cl)ccc21
- IC50 [11]: > 64 µM (inactive)

Compound: OC(c1ccccc1)(c1nc(-c2cccc(C(F)(F)F)c2)cs1)C(F)(F)F (stereo unspecified)
- IC50 [9]: 11.2 µM (inactive)
- IC50 [10]: > 69.5 µM (inactive)

Compound: CC(O)(CS(=O)(=O)c1cccc(C(F)(F)F)c1)C(=O)Nc1cccc(C(F)(F)F)c1 (stereo unspecified)
- AC50 (Cytochrome P450 2C9): inconclusive

Compound: CCOc1cccc2cc(C(=O)Nc3nccs3)c(=O)oc12
- IC50 [12]: > 100 µM (not active)
- IC50 (cells): 1.31 µM (active)

Compound: COc1ccc2c3ncn(CC4CCCO4)c(O)c-3nc2c1 (stereo unspecified)
- IC50 [12]: > 100 µM (not active)

Compound: O=C(NC1CCCC1)c1sc(=S)n2c1[nH]c(=O)c1ccccc12
- IC50 (Aminopeptidase N): 35 µM (active)
- IC50 (Large T antigen): > 100 µM (active)
- Ki (fMet-Leu-Phe receptor): 14.7 µM (active)

Compound: O=C(C[C@H]1CC[C@@H]2[C@H](COC[C@@H](O)CN2C(=O)Nc2ccc3c(c2)OCO3)O1)N1CCN(c2ccccc2)CC1
- AC50 [13]: 22.8 µM (active)

Compound: COc1ccc(-c2cc(C(F)(F)F)nc(NC3CCCC3)n2)cc1OC
- Ki (fMet-Leu-Phe receptor): > 66.7 µM (inactive)
- AC50 (Cytochrome P450 2D6): 20 µM (inconclusive)
